The results in this text go back to patent US8263656B2 (Hoffmann-La Roche Inc., priority 2008, dated 2012).

For one assay, the target named is T1, human CRTH2 (Homo sapiens, UniProt Q9Y5Y4).
T1 construct: expressed in transfected cells
T1 sequence (Q9Y5Y4 1-395): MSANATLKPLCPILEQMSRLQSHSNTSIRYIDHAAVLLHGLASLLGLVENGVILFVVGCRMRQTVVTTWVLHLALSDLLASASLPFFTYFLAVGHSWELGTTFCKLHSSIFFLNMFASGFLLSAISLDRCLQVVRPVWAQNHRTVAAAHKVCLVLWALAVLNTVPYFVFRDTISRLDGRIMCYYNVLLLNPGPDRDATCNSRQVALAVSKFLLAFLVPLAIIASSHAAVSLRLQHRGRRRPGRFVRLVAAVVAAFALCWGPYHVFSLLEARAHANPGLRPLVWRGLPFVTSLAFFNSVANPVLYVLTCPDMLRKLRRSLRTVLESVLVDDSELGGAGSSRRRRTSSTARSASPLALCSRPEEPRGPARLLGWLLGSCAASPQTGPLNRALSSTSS
Briefly: Human CRTH2 Receptor Binding Assay (whole cell, [3H]ramatroban competition). Conditions: CHO-K1 cells expressing human CRTH2 and G-alpha16; 20 nM [3H]ramatroban; 1 hour, room temperature. From the text: A whole cell receptor binding assay using [^3H]ramatroban as the competing radioactive ligand was employed to evaluate the compound binding activity to human CRTH2. The radioactive ligand [^3H]ramatroban was synthesized according to Sugimoto et. al. (Eur. J. Pharmacol. 524, 30-37, 2005) to a specific activity of 42 Ci/mmol.
A cell line stably expressing human CRTH2 was established by transfecting CHO-K1 cells with two mammalian expression vectors that harbored human CRTH2 and G-alpha16 cDNAs, respectively, using FuGene® 6 transfection reagent (from Roche). Stable clones expressing CRTH2 were selected by staining each clone with BM16 (BD Pharmingen™ from BD Biosciences, a division of Becton, Dickinson and Company), which is a rat monoclonal antibody to human CRTH2. The cells were maintained as monolayer cultures in Ham's F-12 medium containing 10% fetal bovine serum, 100 units/mL penicillin, […] streptomycin, 2 mM glutamine, 0.5 mg/mL G418 (geneticin) for CRTH2, and 0.2 mg/mL hygromycin-B (for G-alpha 16). For whole cell receptor binding assay, the monolayer cells were rinsed once with PBS (phosphate buffered saline), dissociated using diammonium ethylenediaminetetraacetate (Versene™ EDTA from the Dow Chemical Company), and suspended in PBS containing 10 mM MgCl2 and 0.06% BSA (bovine serum albumin) at 1.5×10^6 cells/mL.
The binding reactions (0.2 mL) were performed in 96-well plates at room temperature in PBS containing 1.5×10^5 cells, 10 mM MgCl2, 0.06% BSA, 20 nM [^3H]ramatroban, and test compound at various concentrations. After 1 hour of binding reactions, the cells were harvested on GF™/B filter microplates (microtiter plates with embedded glass fiber from PerkinElmer, Inc.) and washed 5 times with PBS using a Filtermate™ Harvester (a cell harvester that harvests and washes cells from microplates from PerkinElmer, Inc.). The radioactivities bound to the cells were determined using a microplate scintillation counter (TopCount® NXT, from PerkinElmer, Inc.) after adding 50 μL of Microscint™ 20 scintillation fluid (from PerkinElmer, Inc.) to each well of the filter plates. The radioactivity from non-specific binding was determined by replacing compound with 10 μM of 15(R)-15-methyl PGD2 (from Cayman Chemical Company) in the reaction mixtures. The radioactivity bound to the cells in the absence of compound (total binding) was determined by replacing compound with 0.25% of DMSO (dimethyl sulfoxide) in the reaction mixture. Specific binding data were obtained by subtracting the radioactivity of non-specific binding from each binding data.
The IC50 value is defined as the concentration of the tested compound that is required for 50% inhibition of total specific binding. In order to calculate the IC50 value, the percent inhibition data were determined for 7 concentrations for each compound. The percent inhibition for a compound at each concentration was calculated according to the following formula, [1-(specific binding in the presence of compound)/(total specific binding)]×100. The IC50 value was then obtained by fitting the percent inhibition data to a sigmoidal dose-response (4 parameter logistic) model in the XLfit® software Excel add-in program [from ID Business Solutions Ltd., model 205, where F(x)=(A+(B−A)/(1+((C/x)^D)))].

Assay [1] deals with DK-PGD2-induced IL-13 production in T helper type 2 (Th2) cells. Description: DK-PGD2-Induced IL-13 Production Assay in Th2 Cells. The assay is classed as cell-based. Conditions: human Th2 cells, 500 nM DK-PGD2, 4 hrs at 37° C., ELISA; unit inferred; read-out: IC50 of inhibiting IL-13 production (values greater than 10). On the procedure: Inhibition of 13,14-dihydro-15-keto Prostaglandin D2 (DK-PGD2)-induced IL-13 production in T helper type 2 (Th2) cells was applied to evaluate compound cellular potency.
Cultures of Th2 cells were established from blood of healthy human volunteers according to the following procedure. Peripheral blood mononuclear cells (PBMC) were first isolated from 50 mL of fresh blood by Ficoll-Hypaque density gradient centrifugation, followed by CD4^+ cell purification using a CD4^+ T Cell Isolation Kit II (from Miltenyi Biotec Inc.). The CD4^+ T cells were then differentiated to Th2 cells by culturing the cells in X-VIVO 15® medium (from Cambrex BioScience Walkersville Inc.) containing 10% human AB serum (serum of blood type AB from Invitrogen Corporation), 50 U/mL of recombinant human interleukin-2 (rhIL-2) (from PeproTech Inc.) and 100 ng/mL of recombinant human interleukin-4 (rhIL-4) (from PeproTech Inc.) for 7 days. The Th2 cells were isolated using a CD294 (CRTH2) MicroBead Kit (from Miltenyi Biotec Inc.) and amplified in X-VIVO 15® medium containing 10% human AB serum and 50 U/mL of rhIL-2 for 2 to 5 weeks. In general, 70% to 80% of the Th2 cells used in the assay are CRTH2-positive when analyzed by fluorescence-activated cell sorting using the BM16 antibody (as previously described) conjugated to phycoerythrin (PE).
The spontaneous production of IL-13 by Th2 cells was determined in the absence of DK-PGD2 stimulation and the value was subtracted from that in the presence of each compound for percent inhibition and IC50 calculations.
The percent inhibition of interleukin 13 (IL-13) production for a compound at various concentrations was calculated according to the following formula, [1-(IL-13 production in the presence of compound)/(IL-13 production in the presence of 0.15% DMSO)]×100. The IC50 value, defined as the concentration of a compound that is required for 50% inhibition of IL-13 production, was calculated by fitting the percent inhibition data for 7 concentrations to a sigmoidal dose-response (4 parameter logistic) model in the XLfit® software Excel add-in program [ID Business Solutions Ltd., model 205, where F(x)=(A+(B−A)/(1+((C/x)^D)))].
On the technique in general: ELISA stands for enzyme-linked immunosorbent assay.

On to `CC(C)c1ccc2c(c1OCC(=O)O)CCCC2NS(=O)(=O)c1cc(C(F)(F)F)cc(C(F)(F)F)c1` (stereo not drawn) [Example 1-2, [5-(3,5-Bis-trifluoromethyl-benzenesulfonyl-amino)-2-isopropyl-5,6,7,8-tetrahydro-naphthalen-1-yloxy]-acetic acid], for which the IC50 (in general, the concentration needed to halve the response being measured) is 195 nM at human CRTH2 and > 10000 nM in assay [1].

`CN(C1CCCc2c1cc(Cl)c(Cl)c2OCC(=O)O)S(=O)(=O)c1cc(C(F)(F)F)cc(C(F)(F)F)c1` (stereo not drawn) [Example 2-7, {5-[(3,5-Bis-trifluoromethyl-benzenesulfonyl)-methyl-amino]-2,3-dichloro-5,6,7,8-tetrahydro-naphthalen-1-yloxy}-acetic acid] came in with an IC50 on human CRTH2 of 333 nM.

As to `Cc1c(Cl)cc2c(c1OCC(=O)O)CCCC2N(C)S(=O)(=O)c1cc(C(F)(F)F)cc(C(F)(F)F)c1` (stereo not drawn) [Example 2-8, {5-[(3,5-Bis-trifluoromethyl-benzenesulfonyl)-methyl-amino]-3-chloro-2-methyl-5,6,7,8-tetrahydro-naphthalen-1-yloxy}-acetic acid], the concentration for half-maximal inhibition (IC50) on human CRTH2 is 638 nM.

As for `CN(C1CCCc2c1cc(Cl)c(F)c2OCC(=O)O)S(=O)(=O)c1cc(Cl)ccc1Cl` (stereo not drawn) [Example 2-9, {3-Chloro-5-[(2,5-dichloro-benzenesulfonyl)-methyl-amino]-2-fluoro-5,6,7,8-tetrahydro-naphthalen-1-yloxy}-acetic acid], at human CRTH2, the IC50 amounted to 1160 nM.

In the case of `CN(C1CCCc2c(OCC(=O)O)cc(Cl)cc21)S(=O)(=O)c1cc(Cl)ccc1Cl` (stereo not drawn) [Example 2-10, {3-Chloro-5-[(2,5-dichloro-benzenesulfonyl)-methyl-amino]-5,6,7,8-tetrahydro-naphthalen-1-yloxy}-acetic acid], the IC50 on human CRTH2 worked out at 859 nM.

`CN(C1CCCc2c1cc(Cl)c(F)c2OCC(=O)O)S(=O)(=O)c1cc(Br)cc(C(F)(F)F)c1` (stereo not drawn) [Example 2-12, {5-[(3-Bromo-5-trifluoromethyl-benzenesulfonyl)-methyl-amino]-3-chloro-2-fluoro-5,6,7,8-tetrahydro-naphthalen-1-yloxy}-acetic acid] displayed an IC50 at human CRTH2 of 12.3 nM.

Regarding `CN(C1CCCc2c(OCC(=O)O)cc(Cl)cc21)S(=O)(=O)c1cc(Br)cc(C(F)(F)F)c1` (stereo not drawn) [Example 2-13, {5-[(3-Bromo-5-trifluoromethyl-benzenesulfonyl)-methyl-amino]-3-chloro-5,6,7,8-tetrahydro-naphthalen-1-yloxy}-acetic acid], the IC50 on human CRTH2 was found to be 6.2 nM.

For the compound `CN(C1CCCc2c(OCC(=O)O)cc(Cl)cc21)S(=O)(=O)c1cc(F)cc(C(F)(F)F)c1` (stereo not drawn) [Example 2-14, {3-Chloro-5-[(3-fluoro-5-trifluoromethyl-benzenesulfonyl)-methyl-amino]-5,6,7,8-tetrahydro-naphthalen-1-yloxy}-acetic acid], the IC50 on human CRTH2 worked out at 11.2 nM.

`CN(C1CCCc2c1cc(Cl)c(F)c2OCC(=O)O)S(=O)(=O)c1cc(F)cc(C(F)(F)F)c1` (stereo not drawn) [Example 2-15, {3-Chloro-2-fluoro-5-[(3-fluoro-5-trifluoromethyl-benzenesulfonyl)-methyl-amino]-5,6,7,8-tetrahydro-naphthalen-1-yloxy}-acetic acid]: the IC50 at human CRTH2 was found to be 14.1 nM.

As for `CN(C1CCCc2c1ccc(F)c2OCC(=O)O)S(=O)(=O)c1cc(C(F)(F)F)cc(C(F)(F)F)c1` (stereo not drawn) [Example 2-17], the IC50 on human CRTH2 came out at 199 nM.

At human CRTH2, `CN(C1CCCc2c1cc(F)c(F)c2OCC(=O)O)S(=O)(=O)c1ccc(Cl)cc1Cl` (stereo not drawn) [Example 2-18, {5-[(2,4-Dichloro-benzenesulfonyl)-methyl-amino]-2,3-difluoro-5,6,7,8-tetrahydro-naphthalen-1-yloxy}-acetic acid] displayed an IC50 of 2520 nM.

In the case of `CN(C1CCCc2c(OCC(=O)O)cc(F)cc21)S(=O)(=O)c1cc(Cl)ccc1Cl` (stereo not drawn) [Example 2-19, {55-[(2,5-Dichloro-benzenesulfonyl)-methyl-amino]-3-fluoro-5,6,7,8-tetrahydro-naphthalen-1-yloxy}-acetic acid], the IC50 at human CRTH2 worked out at 2640 nM.

Compound `CN(C1CCCc2c1cc(F)c(F)c2OCC(=O)O)S(=O)(=O)c1cc(Br)cc(C(F)(F)F)c1` (stereo not drawn) [Example 2-20, {5-[(3-Bromo-5-trifluoromethyl-benzenesulfonyl)-methyl-amino]-2,3-difluoro-5,6,7,8-tetrahydro-naphthalen-1-yloxy}-acetic acid] gave an IC50 at human CRTH2 of 288 nM.

Turning to `CN(C1CCCc2c1cc(F)c(F)c2OCC(=O)O)S(=O)(=O)c1cc(Cl)ccc1Cl` (stereo not drawn) [Example 2-21, {5-[(2,5-Dichloro-benzenesulfonyl)-methyl-amino]-2,3-difluoro-5,6,7,8-tetrahydro-naphthalen-1-yloxy}-acetic acid], the IC50 at human CRTH2 was 2100 nM.

At human CRTH2, `CN(C1CCCc2c(OCC(=O)O)cc(F)cc21)S(=O)(=O)c1cc(Br)cc(C(F)(F)F)c1` (stereo not drawn) [Example 2-22, {5-[(3-Bromo-5-trifluoromethyl-benzenesulfonyl)-methyl-amino]-3-fluoro-5,6,7,8-tetrahydro-naphthalen-1-yloxy}-acetic acid] showed an IC50 of 5.4 nM.

As to `CN(C1CCCc2c(OCC(=O)O)cc(F)cc21)S(=O)(=O)c1cc(F)cc(C(F)(F)F)c1` (stereo not drawn) [Example 2-23, {3-Fluoro-5-[(3-fluoro-5-trifluoromethyl-benzenesulfonyl)-methyl-amino]-5,6,7,8-tetrahydro-naphthalen-1-yloxy}-acetic acid], the IC50 at human CRTH2 was found to be 198 nM.

Regarding `CN(C1CCCc2c1cc(F)c(F)c2OCC(=O)O)S(=O)(=O)c1cc(F)cc(C(F)(F)F)c1` (stereo not drawn) [Example 2-24, {2,3-Difluoro-5-[(3-fluoro-5-trifluoromethyl-benzenesulfonyl)-methyl-amino]-5,6,7,8-tetrahydro-naphthalen-1-yloxy}-acetic acid], at human CRTH2, the half-maximal inhibitory concentration (IC50) was 380 nM.
